According to a melting point compilation (Tetko et al.):

Q: Which melting point does the source give for `O=C(Nc1cccc(S(=O)(=O)C2CCCC2)c1)OCC(F)(F)F` here?
A: The melting point was 104 to 106 °C.

Q: Which melting point does the source give for `N#CCC(=O)c1c(Cl)cccc1Cl` here?
A: Its melting point is 63 to 65 °C.

Q: Which melting point does the source give for `O=C1c2ccccc2C(=O)N1CC(O)CN1C(=O)c2ccccc2C1=O` here?
A: Its melting point is 206 to 208 °C.

Q: Which melting point does the source give for `O=C(O)CCCNC(=O)c1ccco1` here?
A: The melting point was 91 to 93 °C.

Q: For `CNc1ccncc1[N+](=O)[O-]`, which melting point is on record?
A: Its melting point is 157 to 159 °C.

Q: For `Nc1ccc(F)c(N2CCS(=O)(=O)CC2)c1`, which melting point is on record?
A: Its melting point is 181 to 183 °C.

Q: For `CNS(=O)(=O)c1cc(N)ccc1OC`, which melting point is on record?
A: The melting point was 169 to 171 °C.

Q: With `CC(=O)c1sc(-c2ccccc2Br)nc1C` as the compound, how does the melting point read?
A: Its melting point is 124 to 126 °C.

Q: With `COC(=O)C1Nc2ccccc2S(=O)(=O)N1` (configuration not stated) as the compound, how does the melting point read?
A: Its melting point is 171 to 173 °C.

Q: For `Cc1nc2c(c(C)c1CC(=O)O)c(=O)[nH]n2C`, which melting point is on record?
A: Its melting point is 239 to 241 °C.

Q: Which melting point does the source give for `Brc1cccc2cnoc12` here?
A: The melting point was 79 to 81 °C.

Q: For `Nc1cccc(-c2nnnn2C2CC2)c1`, which melting point is on record?
A: Its melting point is 137 to 139 °C.

Q: Which melting point does the source give for `Cc1ccc(S(=O)(=O)Nc2cccc(Cl)c2)cc1N` here?
A: The melting point was 110 to 112 °C.

Q: Which melting point does the source give for `COC(=O)C(=O)C=C(C)OC` here?
A: The melting point was 37 to 39 °C.

Q: With `O=C(O)c1nn(-c2cccc(Br)c2)c2c1CCCC2` as the compound, how does the melting point read?
A: Its melting point is 193 to 195 °C.

Q: With `O=C(O)C1CC2CCCCC2N1C(=O)c1ccc(F)cc1F` (configuration not stated) as the compound, how does the melting point read?
A: The melting point was 189 to 191 °C.

Q: Which melting point does the source give for `CCC(=O)Nc1cccc(C#N)c1` here?
A: Its melting point is 84 to 86 °C.

Q: With `O=[N+]([O-])c1ccc2[nH]c3c(c2c1)CCCC3` as the compound, how does the melting point read?
A: Its melting point is 172 to 174 °C.

Q: For `O=C(O)CSCc1ccc(Cl)cc1`, which melting point is on record?
A: Its melting point is 57 to 59 °C.

Q: Which melting point does the source give for `O=Cc1csc(-c2ncccn2)n1` here?
A: The melting point was 197 to 199 °C.

Q: Which melting point does the source give for `NC(=O)c1c[nH]c(C(=O)O)c1` here?
A: Its melting point is 264 to 266 °C.

Q: For `O=C(O)c1ccc(F)c(COc2ccc(F)cc2)c1`, which melting point is on record?
A: Its melting point is 149 to 151 °C.

Q: For `N#Cc1cc([N+](=O)[O-])ccc1O`, which melting point is on record?
A: Its melting point is 196 to 198 °C.

Q: For `N#CCCOc1ccccc1`, which melting point is on record?
A: The melting point was 58 to 61 °C.

Q: For `Cc1ccc(C(=O)NC(C(=O)O)C(C)C)cc1` (configuration not stated), which melting point is on record?
A: Its melting point is 155 to 157 °C.

Q: For `CCCc1cc(N)on1`, which melting point is on record?
A: The melting point was 54 to 58 °C.

Q: With `O=C(O)C1CCCN(c2nccs2)C1` (configuration not stated) as the compound, how does the melting point read?
A: The melting point was 121 to 123 °C.

Q: With `O=c1[nH]ncc2c[nH]nc12` as the compound, how does the melting point read?
A: The melting point was 266 to 268 °C.

Q: With `COc1cc(C(=O)O)ccc1OCc1cnn(C)c1` as the compound, how does the melting point read?
A: The melting point was 182 to 184 °C.

Q: With `Nc1ccn(Cc2ccccn2)n1` as the compound, how does the melting point read?
A: The melting point was 88 to 90 °C.

Q: With `Cc1cc2c(cc1Br)NC(=O)C(C)O2` (configuration not stated) as the compound, how does the melting point read?
A: Its melting point is 208 to 210 °C.

Q: For `COC(=O)c1cc2c(Br)cccc2[nH]1`, which melting point is on record?
A: Its melting point is 159 to 161 °C.

Q: Which melting point does the source give for `Cc1cc(N)ccc1NC(=O)c1cccc(S(C)(=O)=O)c1` here?
A: Its melting point is 149 to 151 °C.

Q: Which melting point does the source give for `Cn1cc(-c2cccc(CN)c2)cn1` here?
A: Its melting point is 69 to 71 °C.

Q: Which melting point does the source give for `O=C(O)CCc1ccc2c(c1)OCCO2` here?
A: Its melting point is 64 to 66 °C.

Q: With `CC1CN(c2ccc(C(=O)O)cn2)CC(C)O1` (configuration not stated) as the compound, how does the melting point read?
A: Its melting point is 219 to 221 °C.

Q: For `COc1cc(Br)[nH]n1`, which melting point is on record?
A: The melting point was 70 to 72 °C.

Q: Which melting point does the source give for `CCOC(=O)C1CN(C(=O)OC(C)(C)C)CCN1` (configuration not stated) here?
A: Its melting point is 55 to 57 °C.

Q: With `Cc1cc(C(=O)O)nn1C(F)F` as the compound, how does the melting point read?
A: The melting point was 175 to 177 °C.

Q: For `CC(N)c1ccc(N2CCOCC2)cc1` (configuration not stated), which melting point is on record?
A: Its melting point is 61 to 63 °C.

Q: For `CC(=O)NCCc1ccc(S(=O)(=O)Cl)cc1`, which melting point is on record?
A: Its melting point is 131 to 133 °C.

Q: For `NC(=O)Cn1cc(C(=O)O)nn1`, which melting point is on record?
A: Its melting point is 198 to 200 °C.

Q: For `O=C1NC(=O)C2(CCNCC2)N1`, which melting point is on record?
A: The melting point was 240 to 250 °C.

Q: With `N#Cc1cc(F)ccc1N` as the compound, how does the melting point read?
A: Its melting point is 92 to 96 °C.

Q: Which melting point does the source give for `Cc1cc(C=O)c(C)n1-c1ccc2c(c1)OCCO2` here?
A: Its melting point is 112 to 114 °C.

Q: Which melting point does the source give for `CC(=O)c1cnn(-c2ccc(F)cc2)c1C` here?
A: Its melting point is 87 to 89 °C.

Q: With `COc1ccccc1C(C)(C)C(=O)O` as the compound, how does the melting point read?
A: Its melting point is 121 to 123 °C.

Q: With `CC1C(C(F)(F)F)OC(=O)N1c1ncccc1N` (configuration not stated) as the compound, how does the melting point read?
A: The melting point was 62 to 64 °C.

Q: Which melting point does the source give for `O=C(O)CCCNc1ccc(C(F)(F)F)cn1` here?
A: Its melting point is 91 to 93 °C.

Q: For `Cc1cc(C(=O)O)nn1-c1cccc(Cl)c1`, which melting point is on record?
A: Its melting point is 190 to 192 °C.

Q: For `CCOC(=O)c1c(N)nn2cc[nH]c12`, which melting point is on record?
A: Its melting point is 168 to 170 °C.

Q: With `CN(C)CCOc1cc(C(=O)O)ccn1` as the compound, how does the melting point read?
A: The melting point was 173 to 175 °C.

Q: For `Nc1cccc(NC(=O)CCn2ccnc2)c1`, which melting point is on record?
A: The melting point was 125 to 127 °C.

Q: With `CCOC(=O)C1=C(C)NC(=O)NC1CCl` (configuration not stated) as the compound, how does the melting point read?
A: Its melting point is 169 to 171 °C.

Q: For `CCC1(c2cccc(Cl)c2)NC(=O)NC1=O` (configuration not stated), which melting point is on record?
A: The melting point was 159 to 161 °C.

Q: With `NC(=S)c1ccc(NC(=O)C2CC2)cc1` as the compound, how does the melting point read?
A: Its melting point is 179 to 181 °C.

Q: With `COc1ccc(C(=O)O)c(Br)c1` as the compound, how does the melting point read?
A: Its melting point is 189 to 191 °C.
